According to PMC4467913 (Phytochemistry letters, 2015):

Legend:
[1] = test system: MDA-MB-435 cancer cell line; experiment: Cytotoxicity assay, MDA-MB-435; format: cell-based, human; conditions: highest concentration tested 33 µM
Mycobacterium smegmatis = experiment: Growth inhibition assay, M. smegmatis; format: cell-based; conditions: highest concentration tested 50 µg/mL
trypsin = experiment: Protease inhibition assay, trypsin; format: biochemical; conditions: highest concentration tested 13 µM
Staphylococcus aureus = experiment: Growth inhibition assay, S. aureus; format: cell-based; conditions: highest concentration tested 50 µg/mL
Escherichia coli = experiment: Growth inhibition assay, E. coli; format: cell-based; conditions: highest concentration tested 50 µg/mL
HT-29 cancer cell line = experiment: Cytotoxicity assay, HT-29; format: cell-based, human; conditions: highest concentration tested 33 µM
elastase = experiment: Protease inhibition assay, elastase; format: biochemical; conditions: highest concentration tested 13 µM
[2] = test system: Mycobacterium tuberculosis; conditions: highest concentration tested 50 µg/mL
chymotrypsin = experiment: Protease inhibition assay, chymotrypsin; format: biochemical; conditions: highest concentration tested 13 µM
Candida albicans = experiment: Growth inhibition assay, C. albicans; format: cell-based; conditions: highest concentration tested 50 µg/mL

cyclo[L-Val2-L-Ser-L-Ile-L-Asn-L-Val1-L-Phe-L-Pro-] [Microseiramide (1)]
no activity was observed: cytotoxicity [1] | growth inhibition (Mycobacterium smegmatis) | protease inhibition (trypsin) | growth inhibition (Staphylococcus aureus) | growth inhibition (Escherichia coli) | cytotoxicity (HT-29 cancer cell line) | protease inhibition (elastase) | growth inhibition [2] | protease inhibition (chymotrypsin) | growth inhibition (Candida albicans)
